The results in this text go back to PubChem BioAssay (NCI).

Structures are written as SMILES. “And” between values parts separate entries of the source, which are not always exact repeats. Equal values may be shown once.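 Interpolation was linear, between the two tested concentrations surrounding the appropriate level; five concentrations were tested over 48 hours in 96-well plates. GI50: concentration for 50% inhibition of growth. Definition used: TGI = concentration required for complete inhibition of growth.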

What all share (assay): growth of human tumour cells (NCI), 48 h
The test system of assay [1] is SK-MEL-28 melanoma.
The subject of assay [2] is UACC-62 melanoma.
The subject of assay [3] is SF-268 CNS.
For assay [4], the system named is MALME-3M melanoma.
In assay [5] the test system is HL-60(TB) leukemia.
Assay [6] concerns NCI-H522 lung.
The subject of assay [7] is MDA-MB-435.
In assay [8] the test system is MCF7 breast.
The test system of assay [9] is DU-145 prostate.

As for `Cc1c2cc[n+](C)cc2c(C)c2c1[nH]c1ccc(OCC(F)(F)F)cc12`, the GI50 is 5.31 µM and > 33.4 µM in assay [1]; 5.13 µM and 16.4 µM in assay [5]. Moreover, the TGI in [1] is more than 100 µM; in assay [2], more than 100 µM; in assay [3], 0.638 µM; in assay [4], 8.25 µM; in assay [5], more than 70.4 µM; in assay [6] it was 5.64 µM and 4.83 µM.
For the compound `CCCCn1c(-c2ccccc2)cs/c1=N\NC(=O)Cn1c(C)nc2ccccc21`, the TGI is more than 100 µM in assay [2], more than 100 µM in [4], 56.2 µM in assay [5] and more than 100 µM in assay [6].
For `C=C1C(=O)OC2C[C@@]3(C)CCCC(=C)C3CC12` (some centres not stated), the TGI in [1] was 24 µM; in assay [2], 18.1 µM; in [3] it was 28.2 µM; in assay [4], 13.4 µM; in assay [6], 3.65 µM.
Regarding `C[C@@H]([C@H]1CC[C@@]2(C)[C@@H]3CC[C@@H]4C(=CC3=CC[C@]12C)CC[C@H](N(C)C)C4(C)C)N(C)C`, the TGI in assay [7], in assay [1], in assay [2], in assay [3], in assay [4] and in assay [8] was more than 100 µM throughout. Besides, the TGI in assay [9], in assay [5] and in assay [6] was more than 100 µM each time.
For the compound `O=c1[nH]c(=S)[nH]c2c1CCCN2`, the TGI in assay [1], in assay [2], in [3], in assay [4], in assay [5] and in assay [6] was more than 100 µM in each case.
For `C/C(=N/NC(N)=S)C(CN1CCOCC1)C(C1=C(O)c2ccccc2OC1)c1ccccc1` (configuration not stated), the TGI in assay [2] is more than 100 µM; in assay [3], more than 100 µM; in assay [4] it was more than 100 µM; in [9], more than 100 µM; in [5], 50 µM; in assay [6], more than 100 µM.
With `COc1ccc(C2C3=C(COC3=O)Oc3cc4c(cc32)OCO4)cc1OC` (configuration not stated), the TGI is 0.751 µM in assay [7]; more than 100 µM in assay [1]; more than 100 µM in assay [2]; more than 100 µM in [3]; more than 100 µM in assay [4]; more than 100 µM in assay [8]. Also, the figures for the TGI in assay [9], in assay [5] and in [6] were more than 67.2 µM, 0.804 µM and 2.19 µM, respectively.
Take `COc1cccc(C2C(C#N)=C(N)Oc3cc(OCCCCCC[P+](c4ccccc4)(c4ccccc4)c4ccccc4)ccc32)c1` (configuration not stated): the GI50 in [7] was 357 nM; in assay [1] it was 0.477 µM; in assay [9], 950 nM; in [5] it was 0.263 µM; in assay [6] it was 515 nM. Also, the TGI stood at 1.31 µM in [7]; 1.69 µM in assay [1]; 2.21 µM in [9]; 0.738 µM in assay [5]; 2.49 µM in [6].
For the compound `CCOC(=O)/C=C(/C(=O)OCC)n1cc(C)c(=O)n(Cc2cn(CCCCOC(C)=O)nn2)c1=O`, the TGI was 28.4 µM in assay [7]; 35.2 µM in assay [1]; 30.5 µM in assay [2]; 38.7 µM in [3]; 42.2 µM in assay [8]; more than 100 µM in [9]. In addition, the TGI in [6] came out at 4.53 µM.
Regarding `C/C(N=NS(=O)(=O)c1c(C)cc(C)cc1C)=C1\C=CC=CN1O`, the TGI in assay [1], in assay [2], in [3], in [5] and in assay [6] was more than 100 µM in each case.
`COC(=O)c1c(CC(=O)OC(C)C)cc2n(c1=O)Cc1c-2nc2ccccc2c1OC`: the TGI in [1], in assay [2], in [3], in assay [4], in assay [5] and in assay [6] was more than 100 µM throughout.
With `Cc1c(C(=O)O)sc2nc[nH]c(=O)c12`, the TGI in assay [7], in [1], in assay [2], in [3], in assay [4] and in assay [8] was more than 100 µM each time. Besides, the TGI in assay [9], in assay [5] and in [6] was more than 100 µM each time.
For the compound `O=Cn1c2ccccc2c2ccccc21`, the TGI in assay [1], in assay [2], in assay [3], in [4], in [5] and in assay [6] was more than 100 µM in each case.
In the case of `CN1COCN=C1NC#N`, the TGI in assay [1], in assay [2], in assay [3], in assay [4], in assay [5] and in assay [6] was more than 100 µM in each case.
With `O=C(CCC(NC(=O)OCc1ccccc1)C(=O)OCc1ccccc1)Nc1cccc(OCc2ccccc2)c1` (configuration not stated), the TGI in [7] is 43.1 µM; in assay [1], more than 100 µM; in assay [2], more than 100 µM; in assay [3], 71 µM; in [4] it was 56.4 µM; in [8], 41.3 µM. For the same compound, the TGI was 79.6 µM in assay [9], 37.6 µM in assay [5] and 70.1 µM in [6].
Turning to `c1ccc(C2N=C(c3ccccn3)C(c3ccccn3)=NC2c2ccccc2)cc1` (configuration not stated), the TGI in [1], in [2], in assay [3], in assay [4], in assay [5] and in assay [6] was more than 100 µM in each case.
As to `NCCCNCCSP(=O)(O)O`, the TGI in [1] is more than 750 µM; in assay [2] it was more than 750 µM; in assay [3] it was more than 750 µM; in assay [4], more than 726 µM; in [8], more than 750 µM; in [5] it was more than 721 µM. This compound registered a TGI in assay [6] of 738 µM.
`Cc1ccc(N2Cc3c(ccc4ccccc34)OP2(=S)N2CCCC2)cc1` (configuration not stated): the TGI in assay [1], in assay [2], in [3], in [4], in assay [8] and in assay [5] was more than 100 µM in each case. Further, the TGI in assay [6] was more than 100 µM.
As to `O=c1cc(-c2ccccc2)oc2cc(OCCCCCCCCCCOc3ccc4c(=O)cc(-c5ccccc5)oc4c3)ccc12`, the TGI in assay [1], in assay [2], in assay [4], in assay [5] and in [6] was more than 100 µM in each case.
For `C=CC(C)(C)/C(=C\CO[Si](C(C)C)(C(C)C)C(C)C)C(=O)N(C)c1ccccc1I`, the TGI in assay [7] amounted to 73.9 µM; in [1], 29.4 µM; in assay [2], 28.7 µM; in assay [3], 24.5 µM; in assay [8], 26.1 µM; in assay [9], 29.4 µM. For the same compound, the TGI in [5] was 11.4 µM; in assay [6], 19 µM.
In the case of `C#CC(O)/C=C/C(O)CCCC(O)CC#CC(O)C#CCCCCC(O)/C=C/CCCC(=O)CCCCCCCCCCCCCCCC(O)C(O)C#CC(=O)O` (configuration not stated), the TGI in assay [7], in assay [1], in assay [2], in assay [3], in assay [4] and in assay [8] was more than 25 µM each time. The TGI in [9] is more than 25 µM; in assay [5], more than 25 µM; in assay [6], 17.1 µM.
`O=C1OC2(CCCCC2)C(Oc2ccc(Cl)cc2)=C1F`: the TGI in assay [7] was more than 100 µM; in assay [1] it was 81.5 µM; in assay [2], more than 100 µM; in [3], more than 100 µM; in [4], 51.6 µM; in assay [8], more than 100 µM. For the same compound, the TGI in [9] is more than 100 µM; in assay [5], 62.8 µM; in [6], 95.9 µM.
As to `CC(=O)OC1C2CCC3CC2C2(SCCS2)C31` (configuration not stated), the TGI in [7], in assay [1], in assay [2], in [3], in assay [4] and in assay [8] was more than 100 µM each time. In addition, the TGI in [9], in assay [5] and in assay [6] was more than 100 µM throughout.
For `COC1CCC(CO)OO1` (configuration not stated), the TGI in assay [1] is more than 100 µM; in [2], more than 100 µM; in assay [3], more than 100 µM; in assay [4], more than 100 µM; in [5] it was 58 µM; in assay [6], 27.4 µM.
With `C=CCCCN(C(=O)c1ccccc1)c1ccc(C(=O)OC)o1`, the TGI in [2], in [3], in [4], in [8], in assay [9] and in [5] was more than 100 µM each time. The same compound came in with a TGI in [6] of more than 100 µM.
`CN1CCC(O)(OC(=O)C(c2ccccc2)C2(O)CCCC2)CC1` (configuration not stated): the TGI in assay [7], in [1], in assay [2], in assay [3], in assay [4] and in [8] was more than 100 µM in each case. The TGI in assay [9], in assay [5] and in [6] was more than 100 µM each time.
